Source: patent publication US8598124B2, “Peptides derived from HMG-CoA reductase and cosmetic and/or pharmaceutical composition containing same” (ISP Investments Inc., priority 2008, dated 2013)
Where no end group is shown, it is not given here.

Experiments:
Format in all cases: cell-based
[1] = system: HMG-CoA reductase; test: Expression of HMG-CoA reductase in normal human keratinocytes (immunofluorescence); conditions: 0.5 ppm, 48 hours
Experimental: The goal of this study is to determine the influence of peptide SEQ ID No. 4 on the expression of HMG-CoA reductase in normal human keratinocytes.
Protocol: Normal human dermal keratinocytes in culture are treated with a 1% stock solution at 50 ppm of peptide SEQ ID No. 4 for 48 hours (the medium in the presence of the active ingredient is changed every 24 hours). The cells are then washed and fixed in cold methanol for 4 minutes at 4° C. The cells are incubated in the presence of a polyclonal rabbit antibody specific for HMG-CoA reductase (Millipore, Upstate), and then a secondary antibody coupled with a fluorescent dye. The cells are then examined by epifluorescence microscope (Nikon Eclipse E600 microscope).

[2] = system: normal human dermal fibroblasts; test: Ultrastructural study of caveolae in human fibroblasts; conditions: 0.5 ppm (1% of stock solution at 50 ppm), 48 hours
Experimental: The goal of this study is to study at the ultrastructural level the caveolae in human dermal fibroblasts.
Protocol: Normal human dermal fibroblasts in culture are treated with a 1% stock solution at 50 ppm of peptide SEQ ID No. 4 for 48 hours (the medium in the presence of the active ingredient is changed every 24 hours).

[3] = system: HMG-CoA reductase; test: Expression of HMG-CoA reductase in skin biopsies (immunolabelling); conditions: 0.5 ppm applied topically on human skin samples in culture, 24 hours or 48 hours
Experimental: The goal of this study is to determine the influence of peptide SEQ ID No. 5 on the expression of HMG-CoA reductase.
Protocol: Samples of human skin are placed in culture at the air/liquid interface. A 1% stock solution at 50 ppm of peptide SEQ ID No. 5 is applied topically and then the samples are incubated for 24 hours or 48 hours.
These skin samples are then fixed with formaldehyde and then enclosed in paraffin. Sections of 2 to 3 μm are then made. Immunolabelling is carried out after unmasking the specific sites by microwave treatment and then incubation in trypsin. Immunolabelling is carried out by using a polyclonal rabbit antibody specific for HMG-CoA reductase (Millipore, Upstate), and then a secondary antibody, coupled with a fluorescent dye. The skin sections are then examined by epifluorescence microscope (Nikon Eclipse E600 microscope).

[4] = system: normal human keratinocytes; test: Differentiation study of human keratinocytes (pankeratin immunofluorescence); conditions: 0.5 ppm, 48 hours, anti-cytopankeratin antibody, epifluorescence microscope
Experimental: The goal of this study is to determine the influence of peptide SEQ ID No. 5 on epidermal differentiation.
Protocol: Normal human keratinocytes in culture are treated with a 1% stock solution at 50 ppm of peptide SEQ ID No. 4 for 48 hours (the medium in the presence of the active ingredient is changed every 24 hours). The cells are then washed and fixed with cold methanol for 4 minutes at 4° C.

[5] = system: normal human keratinocytes; test: Ultrastructural study of lamellar bodies in human keratinocytes (transmission electron microscopy); conditions: 48 hours
Experimental: The goal of this study is to study in an ultrastructural manner, in transmission electron microscopy, keratinocytes treated by peptide SEQ ID No. 5 at 0.5 ppm.
Normal human keratinocytes in culture are treated with a 1% stock solution at 50 ppm of peptide SEQ ID No. 5 for 48 hours (the medium in the presence of the active ingredient is changed every 24 hours). The cells are washed in PBS, and then are fixed by Karnosky hypertonic fixation (4% paraformaldehyde, 5% glutaraldehyde in a 0.08M phosphate buffer) 1 hour at ambient temperature and then 24 hours at 4° C. The cells are detached from the support by scraping and centrifuged 5 minutes at 1000 rpm. The supernatant is eliminated and a 1M sodium cacodylate buffer is deposited on the residue. The cells are mixed with 2% agar and then postfixed by osmium tetraoxide for 1 hour. The specimens are then dehydrated by successive passages in a series of alcohol (from 50 to 100%). The cells are then coated in a resin. The polymerization is carried out for approximately 12 hours at 60° C. Semi-thin sections of 0.5 μm are made with an ultramicrotome. The sections are deposited on a heat bonded slide and then colored with toluidine blue. The slides are then dehydrated again and mounted in a suitable medium. […]

[6] = system: normal human keratinocytes; test: Protective effect on skin cells subjected to UVB radiation (MTT cellular viability); conditions: 0.5 ppm, 24 hours before and 24 hours after UVB 50 mJ/cm^2, versus untreated irradiated control
Experimental: The goal of this study is to determine the protective effect of peptide SEQ ID No. 5 with relation to normal human keratinocytes subjected to stress by UVB radiation. To do this, cellular viability tests were conducted by the MTT technique.
Protocol: The normal human keratinocytes are treated with a 1% solution, a solution at 50 ppm of peptide SEQ ID No. 5, for 24 hours, irradiated by UVB (50 mJ/cm^2) and then cultivated again 24 hours in the presence of the same concentration of peptide SEQ ID No. 5. Untreated and irradiated controls are carried out under the same conditions. At the end of the experiment, the cells are incubated in a solution containing 0.1 mg/ml of MTT (3-[4,5-dimethylthiazol-2-yl]-2,5-diphenyltetrazolium bromide). This compound is absorbed by the living cells and then metabolized by mitochondrial enzymes into a blue violet compound, formazan, that will be assayed by spectrophotometry at 540 nm. The optical density (O.D.) Is then directly proportional to the mitochondrial enzymatic activity as well as to the number of living cells.

Row | Substance | HMG-CoA reductase cytoplasmic immunofluorescence in treated cells [1] | caveolae in treated cells in comparison with untreated control cells [2] | HMG-CoA reductase immunofluorescence in the upper layers of the epidermis, relative to untreated control [3] | expression of pankeratins [4] | Golgi complex development / production of lamellar bodies (Odland bodies) versus control cells ([5]; 0.5 ppm (1% of stock solution at 50 ppm), transmission electron microscopy) | lipid synthesis in normal human keratinocytes ([5]; 0.5 ppm, inferred from ultrastructural study) | increase of cellular viability after UVB irradiation (MTT) [6] [%]
1 | Arg-Gly-Lys-Ser (RGKS) [Peptide SEQ ID No. 4] | more intense cytoplasmic fluorescence | significant increase in caveolae |  |  |  |  | 
2 | Arg-Gly-Lys-Ser-NH2 (RGKS-NH2) [Peptide SEQ ID No. 5] |  |  | stronger fluorescence | increases the expression of pankeratins | Golgi complex is substantially more developed than in the control cells | capable of inducing an increase in lipid synthesis | 16
